Data taken from patent US9943558B2, “Compositions and methods for treating multi-drug resistant malaria” (Febris Bio-Tech Limited, priority 2011, dated 2018).
Values after ≈ are worked out from the molar mass of the structure shown. Read-outs that look alike come from different tables or passages of the source.

Legend:
[1] = in vivo; cited from earlier work
[2] = tested on: P. falciparum multi-drug resistant (MDR) clone Dd2; assay: In vitro growth inhibition IC50, Giemsa-stained smears (Example 1D), clone Dd2; format: cell-based; conditions: Plasmodium falciparum
Method: (§1) The Luo Han Guo general extract (Sample 8) was prepared by extraction of dried Luo Han fruit with hot water as in Example 1A, and then fractionated with EtOAc and n-butanol respectively as in Example 1A to yield 3 fractions corresponding to Samples 5a-7a. Samples 6a-7a also correspond to “compound B” and “compound A” respectively.
(§2) The P. falciparum was cell synchronized by adding 5% of D-sorbitol, and synchronized cells were then spread on culture plates after achieving ring form phase, with an initial infection rate of 1% and PCV at 5%.
(§3) 10 μl active ingredient solution plus 90 μl P. falciparum culture medium were spread on each well.
(§4) Drug-sensitive (DS) clone 3D7 and multi-drug resistant (MDR) clone Dd2 of Plasmodium falciparum, obtained from the Malaria Research and Reference Reagent Resource Centre (MR4), Manassas, Va., USA, were maintained continuously in blood group O+ human erythrocytes and 10% human serum in a gas mixture consisting of 7% CO2, 5% O2 and 88% N2.
(§5) In vitro inhibitory concentration assays. P. falciparum clones 3D7 and Dd2 were maintained continuously in blood group O+ human erythrocytes and 10% human serum in a gas mixture consisting of 7% CO2, 5% O2, and 88% N2, synchronized by serial treatments with 5% D-sorbitol. […]

[3] = cited from earlier work; for half-life (t1/2): in humans
[4] = tested on: P. falciparum infection; assay: Expected oral treatment of patients, standard blood film monitoring; format: in vivo, Plasmodium falciparum; conditions: patient, aqueous composition, total daily dosage up to about 500 mg of each active
[5] = cited from earlier work
[6] = tested on: P. falciparum DD2; assay: Checkerboard assay (FIC index); format: cell-based, Plasmodium falciparum; conditions: for MIC: Plasmodium falciparum, DD2, each component used alone
Method: Checkerboard assay. The anti-malaria activity of Luohan fruit extracts and Stevia leaf extracts in vitro were determined and predicted using the malarial strain P. falciparum DD2. Samples are mixed into 1:2 series dilutions and the FIC index (FICI) is calculated. (Rand, K. H., Houck, H. J., Brown, P. et al. “Reproducibility of the microdilution checkerboard method for antibiotic synergy,” Antimicrobial Agents & Chemotherapy (1993) 37:613-5; Eliopoulos, G. M., Moellering R. C. in Antibiotics in Laboratory Medicine, ed. Lorian V (Williams & Wilkins, Baltimore, Md., 1991), pp 432-492; Ghannoum, M. A., Fu, Y., Ibrahim, A. S., Mortara, L. A., Shafiq, M. C., Edwards, J. E., Jr., Criddle, R. S. Antimicrob. Agents Chemother. (1995) 39:2459-2465; Barchiesi, F., DiFrancesco, L. F., Scalise, G. “In Vitro Activities of Terbinafine in Combination With Fluconazole and Itraconazole Against Isolates of Candida albicans With Reduced Susceptibility to Azoles,” Antimicrob. Agents Chemother. (1997) 41:1812-1814. Each of the foregoing references are incorporated herein by reference in their entirety.)
To determine whether the readout of the combination therapy is additive, synergistic, or indifferent, the FIC index (FICI) was calculated by the use of the checkerboard assay. The FICI represents the sum of the FICs of each drug tested, where the FIC (fractional inhibitory concentration) is determined for each drug by dividing the MIC of each drug when used in combination by the MIC of each drug when used alone. FICI=(MICdrug A in combination/MICdrug A alone)+(MICdrug B in combination/MICdrug B alone). The preassumptions are that (i) testing uses concentrations separated by a factor of 2, and (ii) one-dilution-step MIC changes are within the range of experimental error. Other sophisticated methods have also been used; for example, a contour surface-plot methodology was used in characterizing the nature of three antifungal agents in combinations using various concentrations of each agent.

[7] = tested on: P. falciparum drug-sensitive clone 3D7; assay: In vitro inhibitory concentration assay, light microscopy of Giemsa-stained smears (Example 1C), clone 3D7; format: cell-based; conditions: Plasmodium falciparum, 10^−4 g/L, read-out: Percent of Inhibition (%, Mean ± SD) 3D7
Method: (§6) Parasite cultivation. Drug-sensitive clone 3D7 and multi-drug resistant (MDR) clone Dd2 of Plasmodium falciparum, obtained from the Malaria Research and Reference Reagent Resource Centre (MR4), Manassas, Va., USA, were maintained continuously in blood group O+ human erythrocytes and 10% human serum in a gas mixture consisting of 7% CO2, 5% O2 and 88% N2.
(§7) The stock solutions of Example 1A, and CQ employed as the positive control (prepared as a 10 mM stock solution in PBS), were stored at −20° C. Each working solution was freshly prepared in cell culture medium.
(§8) In vitro inhibitory concentration assays. P. falciparum clones 3D7 and Dd2 were maintained continuously in blood group O+ human erythrocytes and 10% human serum in a gas mixture consisting of 7% CO2, 5% O2, and 88% N2, synchronized by serial treatments with 5% D-sorbitol. In vitro growth inhibition of ring-stage-parasitized erythrocytes starting at 1% parasitemia and 2.5% hematocrit was determined by light microscopy of Giemsa-stained smears.

[8] = tested on: P. falciparum drug-sensitive (DS) clone 3D7; assay: In vitro growth inhibition IC50, Giemsa-stained smears (Example 1D), clone 3D7; format: cell-based; conditions: Plasmodium falciparum
Method: as §1, §2, §3, §4, §5

[9] = tested on: P. falciparum multi-drug resistant (MDR) clone Dd2; assay: In vitro inhibitory concentration assay, light microscopy of Giemsa-stained smears (Example 1C), clone Dd2; format: cell-based; conditions: Plasmodium falciparum, 10^−4 g/L, read-out: Percent of Inhibition (%, Mean ± SD) Dd2
Method: as §6, §7, §8

[10] = tested on: Plasmodium falciparum multidrug resistant strain (MDR) 7G8; assay: In vitro growth inhibition of P. falciparum 7G8, infection rate by Giemsa-stained smear (Example 1B); format: cell-based; conditions: 7G8, read-out: Antimalarial activity, IC50
Source text: The Plasmodium falciparum multidrug resistant strain (MDR) 7G8, (obtained from the Malaria Research and Reference Reagent Resource Centre (MR4), Manassas, Va., USA), was in vitro cultured in RMPI 1640 cell culture medium (supplemented with 10% Human Serum) with PCV (packed cell volume) at 5%. The P. falciparum was cell synchronized by adding 5% of D-sorbitol, and synchronized cells were then spread on culture plates after achieving ring form phase, with an initial infection rate of 1% and PCV at 5%.
as §3

[11] = tested on: P. falciparum clone 3D7; assay: Malaria SYBR Green I-based fluorescence method, clone 3D7; format: cell-based; conditions: Plasmodium falciparum, 3D7, 72 h, read-out: In vitro susceptibility (IC50) 3D7
Method: (§9) 1803-1806, Vol. 48, No. 5, with slight modifications. Drug solutions were serially diluted with culture medium and distributed to asynchronous parasite cultures in 96-well plates in quadruplicate to achieve 0.2% parasitaemia with a 2% haematocrit in a total volume of 100 μL. The plates were then incubated for 72 h at 37° C. Following incubation, 100 μL of lysis buffer with 0.2 μL/mL SYBR Green 1 was added to each well. The plates were incubated at 37° C. for 1 h in the dark and then placed in a 96-well fluorescence plate reader (Multilabel HTS Counter; PerkinElmer, Waltham, Mass., USA) with excitation and emission wavelengths at 497 nm and 520 nm, respectively, for measurement of fluorescence. The 50% inhibitory concentration (IC50) was determined by non-linear regression analysis of logistic dose—response curves using GraphPad Prism software (GraphPad Software Inc., La Jolla, Calif.). This example serves as a comparative method.
(§10) Next, the assay portion of procedure of Example 1C was performed using Coartem as a positive control.

[12] = tested on: P. falciparum clone Dd2; assay: Malaria SYBR Green I-based fluorescence method, clone Dd2; format: cell-based; conditions: Plasmodium falciparum, DD2, 72 h, read-out: In vitro susceptibility (IC50) Dd2
Method: as §9, §10

[13] = Example 2E (control): artemesinin with Reb A

Compound: CCCCN(CCCC)CC(O)c1cc(Cl)cc2c1-c1ccc(Cl)cc1/C2=C/c1ccc(Cl)cc1 (racemic) [lumefantrine, (+/−)-2-dibutylamino-1-[2,7-dichloro-9-(4-chlorobenzylidene)-9,11-fluoren-4-yl]ethanol]
- elimination [1]: eliminated more slowly

Compound: C=C1C[C@@]23CC[C@H]4[C@@](C)(CCC[C@@]4(C)C(=O)OC4OC(CO)C(O)C(O)C4O)[C@@H]2CC[C@]1(OC1OC(CO)C(O)C(OC2OC(CO)C(O)C(O)C2O)C1OC1OC(CO)C(O)C(O)C1O)C3 (stereo partly drawn) [Sample No. 1, (14α)-13-[(2-O-β-D-glucopyranosyl-3-O-β-D-glucopyranosyl-β-D-glucopyranosyl)oxy]kaur-16-en-19-oic acid β-D-glucopyranosyl ester]
- IC50 ([2]; clone Dd2 (MDR), Giemsa smear, read-out: IC50, av. Dd2 (MDR)): 376 ± 12.4 nM
- adverse hemodynamic effects or blood glucose lowering effects ([3]; at the dosages used herein): does not exhibit adverse hemodynamic effects or blood glucose lowering effects
- half-life (t1/2) [3]: approximately 14 hours
- expected time until P. falciparum infection is suppressed or inhibited [4]: 3 to 7 days
- solubility in water [5]: fully water soluble
- MIC in combination ([6]; Example 2D: compound A with Reb A): 94 nM
- MIC in combination [6, 13]: 376 nM
- MIC [6]: 376 nM
- inhibition at 0.1 µg/mL [7]: 41.3%
- IC50 ([8]; clone 3D7 (DS), Giemsa smear, read-out: IC50, av. 3D7 (DS)): 220 ± 10.2 nM
- inhibition at 0.1 µg/mL [9]: 56.1 ± 1.36%

Compound: C[C@@H]1CC[C@H]2[C@@H](C)C(=O)O[C@@H]3O[C@@]4(C)CC[C@@H]1[C@]32OO4 [Artemisinin, reference compound]
- solubility in water [5]: poorly soluble in water
- MIC in combination [6, 13]: 0.0081 nM
- MIC [6]: 0.13 nM

Compound: CO[C@H]1O[C@@H]2O[C@@]3(C)CC[C@H]4[C@H](C)CC[C@@H]([C@H]1C)[C@@]24OO3 [Artemether, artemether]
- elimination [1]: rapidly eliminated

Compound: CCN(CC)CCCC(C)Nc1ccnc2cc(Cl)ccc12 (centres unmarked) [CQ, chloroquine]
- IC50 ([2]; DD2, read-out: IC50, av. Dd2 (MDR)): 22.6 ± 0.82 nM
- IC50 [10]: 0.264 ± 0.012 µg/mL (≈ 0.825 µM)
- IC50 [11]: 1.63 ± 0.1 nM
- IC50 ([8]; 3D7, read-out: IC50, av. 3D7 (DS)): 1.37 ± 0.12 nM
- IC50 [12]: 22.1 ± 1.96 nM

Compound: C=C1C[C@@]23CC[C@H]4[C@@](C)(CCC[C@@]4(C)C(=O)O[C@@H]4O[C@H](CO)[C@@H](O)[C@H](O)[C@H]4O)[C@@H]2CC[C@]1(O[C@@H]1O[C@H](CO)[C@@H](O)[C@H](O)[C@H]1O[C@@H]1O[C@H](CO)[C@@H](O)[C@H](O)[C@H]1O)C3 [stevioside]
- half-life (t1/2) [3]: approximately 14 hours

Compound: C[C@H](CC[C@@H](OC1OC(COC2OC(CO)C(O)C(O)C2O)C(O)C(O)C1OC1OC(CO)C(O)C(O)C1O)C(C)(C)O)[C@H]1CC[C@@]2(C)[C@@H]3CC=C4[C@@H](CC[C@H](OC5OC(COC6OC(CO)C(O)C(O)C6O)C(O)C(O)C5O)C4(C)C)[C@]3(C)[C@H](O)C[C@]12C (stereo partly drawn) [mogroside V, (3β,9β,10α,11α,24R)-3-[(6-O-β-D-glucopyranosyl-β-D-glucopyranosyl)oxy]-11,25-dihydroxy-9-methyl-19-norlanost-5-en-24-yl-O-β-D-glucopyranosyl-(1-2)-O-[β-D-glucopyranosyl-(1-6)]-β-D-glucopyranoside]
- solubility in water [5]: fully water soluble
